According to patent publication US8697869B2, “3-(heteroaryl-amino)-1,2,3,4-tetrahydro-9H-carbazole derivatives and their use as prostaglandin D2 receptor modulators” (Actelion Pharmaceuticals Ltd., priority 2010, dated 2014):

Tests used:
hCRTH2 receptor [1] = target: T1, hCRTH2 receptor (Homo sapiens (Human), UniProt Q9Y5Y4); test: Radioligand displacement assay in presence of human serum albumin (HSA); conditions: 3H-PGD2 2.5 nM, Binding-Buffer with 0.5% HSA instead of 0.1% BSA
Method: (§1) First, recombinant HEK293-hCRTH2 cells were detached from culture plates into 5 ml buffer A/plate (Buffer A: 5 mM Tris, 1 mM MgCl2-6H2O pH=7.4) using a rubber policeman. Cells were then transferred into centrifugation tubes and centrifuged for 5 min at 400 g. The cell pellet was resuspended in the same buffer and tubes were frozen at −80° C. Cells were thawed and membrane fragments were generated by homogenization using a polytron homogenizer (30 seconds). The membrane fragments were then centrifuged at 3000 g for 20 minutes and resuspended in buffer C (Buffer C: 75 mM Tris, 25 mM MgCl2, 250 mM Saccharose pH 7.4). Aliquots of membrane fragements were stored at −20° C.
(§2) Binding assay was performed in a final assay volume of 250 μl. First, 25 μl of test compound, previously diluted in Binding-Buffer (Binding-Buffer: 50 mM Tris-Base, 100 mM NaCl, 1 mM EDTA, 0.1% BSA (protease free), 0.01% NaN3, 10 mM MnCl2 pH 7.0) was placed into each well. After addition of 75 μl Binding-Buffer, 50 μl of the radioligand ^3H-PGD2 (at 2.5 nM (220.000 dpm/well) from ANAWA ART0662) was added to each well. Binding assay was started by addition of 100 μl CRTH2 membrane fragments, reaching a final concentration of 20 μg/well. For non-specific binding, PGD2 was added to the reaction mixture to […] final concentration. This assay mix was incubated for 90 minutes at room temperature and then filtered through a GF/C filter 96-well plate which was pre-soaked for 3 hours in 0.5% polyethyleneimine (PEI). The filter-wells were washed three times with ice cold Binding-Buffer. Then, 40 μl of Microscint-40 (Packard) was added to each well and the retained radioactivity quantified in a Topcount (Packard).
Radioligand Displacement Assay-Human Serum Albumin (HSA):
Radioligand displacement assay in presence of human serum albumin (HSA) was performed as described above, with following modifications. Binding-Buffer-HSA: Binding-buffer+0.5% Sigma Albumin from Human serum A1887 (instead of 0.1% BSA). A volume of 25 μl test compound, previously diluted in Binding-Buffer-HSA was placed into each well. After addition of 75 μl Binding-Buffer-HSA, 50 μl of ^3H-PGD2 (at 2.5 nM (220.000 dpm/well) from ANAWA ART0662) was added to each well. Remaining protocol was identical as described above.

eosinophils = test: Eosinophil shape change assay with human plasma; format: cell-based; conditions: human polymorphonuclear cells, 50% human plasma, activated with 100 nM PGD2
Method: After obtaining informed consent, blood samples were drawn by venipuncture according to the protocol approved by the ethics committee of Basel, Switzerland. Polymorphonuclear leukocytes (containing eosinophils, basophils and neutrophils) were isolated using the Polymorphprep™ method (Axis-Shield). In brief, anticoagulated whole blood was layered onto a Polymorphprep gradient (density 1.113 g/ml) and centrifuged at 500 g for 30 min. The polymorphonuclear cell fraction was harvested and depleted for erythrocytes by hypotonic saline lysis.
The polymorphonuclear cells were resuspended in assay buffer (1×PBS with Ca^2+/Mg^2+ supplemented with 0.1% BSA, 10 mM HEPES, and 10 mM Glucose, pH 7.4) at 5×10^6 cells/ml and stained with anti-CD49d-APC ((APC=Allophycocyanin) for 1 hour at RT. Test compounds, at various concentrations, were preincubated 10 min in human plasma (anticoagulated with a thrombin inhibitor). Then, human plasma was added to the polymorphonuclear cells to 50% of final assay volume with polymorphonuclear cells at 4×10^6 cells/rd. After incubation for 10 minutes at 37° C., the polymorphonuclear cells were activated for 5 min at 37° C. by addition of PGD2 at 100 nM final concentration. Activation was stopped by addition of 0.5 ml paraformaldehyde (1%).
Immediately after fixation with paraformaldehyde, the samples were analyzed by FACSCanto flow cytometer (BD Biosciences) and target cells were identified by their forward-scatter (FSC) and side-scatter (SSC) characteristics. Eosinophils were identified by the anti-CD49d-APC signal and their characteristic side-scatter (SSC) profile. Shape change responses, indicative of eosinophil activation, were quantified as the percent of cells with an increased forward-scatter.

hCRTH2 receptor [2] = target: T1, hCRTH2 receptor; test: hCRTH2 receptor membranes radioligand displacement assay (3H-PGD2); conditions: 3H-PGD2 2.5 nM, HEK293-hCRTH2 membranes, Binding-Buffer with 0.1% BSA
Method: Biological Assays: Preparation of hCRTH2 Receptor Membranes and Radioligand Displacement Assay:
as §1, §2

T1 sequence (Q9Y5Y4 whole entry, the tested form may be a part): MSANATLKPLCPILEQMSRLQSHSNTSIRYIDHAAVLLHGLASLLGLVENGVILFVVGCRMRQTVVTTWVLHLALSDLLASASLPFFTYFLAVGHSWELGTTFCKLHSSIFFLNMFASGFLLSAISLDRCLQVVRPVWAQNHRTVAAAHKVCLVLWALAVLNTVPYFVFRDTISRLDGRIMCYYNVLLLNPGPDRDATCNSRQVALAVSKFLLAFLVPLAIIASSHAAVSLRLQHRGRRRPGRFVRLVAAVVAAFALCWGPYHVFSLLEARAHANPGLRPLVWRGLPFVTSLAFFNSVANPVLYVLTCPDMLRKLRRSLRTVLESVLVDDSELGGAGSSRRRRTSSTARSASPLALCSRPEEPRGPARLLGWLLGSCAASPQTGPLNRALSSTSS

Structure (SMILES) | IC50 (hCRTH2 receptor [1]) [nM] | IC50 (eosinophils) [nM] | IC50 (hCRTH2 receptor [2]) [nM] | IC50 (eosinophils; Eosinophil) [nM]
O=C(O)Cn1c2c(c3cc(F)ccc31)C[C@@H](Nc1ncc(F)cn1)CC2 [Example 1, (3S)-2-(6-fluoro-3-((5-fluoropyrimidin-2-yl)amino)-3,4-dihydro-1H-carbazol-9-(2H)-yl)acetic acid] | 20 | 21 | 16 | –
O=C(O)Cn1c2c(c3cc(F)ccc31)C[C@@H](Nc1ncc(Cl)cn1)CC2 [Example 3, (3S)-2-(6-fluoro-3-((5-chloropyrimidin-2-yl)amino)-3,4-dihydro-1H-carbazol-9-(2H)-yl)acetic acid] | 23 | 41 | 4.6 | –
O=C(O)Cn1c2c(c3cc(F)ccc31)C[C@H](Nc1ncc(Cl)cn1)CC2 [Example 4, (3R)-2-(6-fluoro-3-((5-chloropyrimidin-2-yl)amino)-3,4-dihydro-1H-carbazol-9-(2H)-yl)acetic acid] | 27 | 722 | 13 | –
CN(c1ncc(F)cn1)[C@H]1CCc2c(c3cc(F)ccc3n2CC(=O)O)C1 [Example 7, (3S)-2-(6-fluoro-3-((5-fluoropyrimidin-2-yl)(methyl)amino)-3,4-dihydro-1H-carbazol-9(2H)-yl)acetic acid] | 7 | – | 2.5 | 8
CN(c1ncc(Cl)cn1)[C@H]1CCc2c(c3cc(F)ccc3n2CC(=O)O)C1 [Example 9, (3S)-2-(3-((5-chloropyrimidin-2-yl)(methyl)amino)-6-fluoro-3,4-dihydro-1H-carbazol-9(2H)-yl)acetic acid] | 11 | – | 2.7 | 15
CN(c1ncc(C(F)(F)F)cn1)[C@H]1CCc2c(c3cc(F)ccc3n2CC(=O)O)C1 [Example 11, (3S)-2-(6-fluoro-3-(methyl(5-(trifluoromethyl)pyrimidin-2-yl)amino)-3,4-dihydro-1H-carbazol-9(2H)-yl)acetic acid] | 15 | – | 2 | 49
CN(c1ncccn1)[C@H]1CCc2c(c3cc(F)ccc3n2CC(=O)O)C1 [Example 15, (3S)-2-(6-fluoro-3-(methyl(pyrimidin-2-yl)amino)-3,4-dihydro-1H-carbazol-9(2H)-yl)acetic acid] | 35 | – | 9.9 | 66
CN(c1nc2cc(Cl)ccc2o1)[C@H]1CCc2c(c3cc(F)ccc3n2CC(=O)O)C1 [Example 18, (3S)-2-(3-((5-chlorobenzo[d]oxazol-2-yl)(methyl)amino)-6-fluoro-3,4-dihydro-1H-carbazol-9(2H)-yl)acetic acid] | 28 | – | 1.4 | 6
CN(c1nc2ccccc2o1)[C@H]1CCc2c(c3cc(F)ccc3n2CC(=O)O)C1 [Example 19, (3S)-2-(3-(benzo[d]oxazol-2-yl(methyl)amino)-6-fluoro-3,4-dihydro-1H-carbazol-9(2H)-yl)acetic acid] | 17 | – | 7.3 | 31
CCN(c1ncc(Cl)cn1)[C@H]1CCc2c(c3cc(F)ccc3n2CC(=O)O)C1 [Example 24, (3S)-2-(3-((5-chloropyrimidin-2-yl)(ethyl)amino)-6-fluoro-3,4-dihydro-1H-carbazol-9(2H)-yl)acetic acid] | 19 | – | 1.7 | 37
CCCN(c1ncc(Cl)cn1)[C@H]1CCc2c(c3cc(F)ccc3n2CC(=O)O)C1 [Example 25, (3S)-2-(3-((5-chloropyrimidin-2-yl)(propyl)amino)-6-fluoro-3,4-dihydro-1H-carbazol-9(2H)-yl)acetic acid] | 17 | – | 3.9 | 13
O=C(O)Cn1c2c(c3cc(F)ccc31)C[C@@H](N(CC1CC1)c1ncc(Cl)cn1)CC2 [Example 27, (3S)-2-(3-((5-chloropyrimidin-2-yl)(cyclopropylmethyl)amino)-6-fluoro-3,4-dihydro-1H-carbazol-9(2H)-yl)acetic acid] | 6 | – | 1.7 | 14
CN(c1ncc2ccccc2n1)[C@H]1CCc2c(c3cc(F)ccc3n2CC(=O)O)C1 [Example 28, (3S)-2-(6-fluoro-3-(methyl(quinazolin-2-yl)amino)-3,4-dihydro-1H-carbazol-9(2H)-yl)acetic acid] | 22 | – | 12 | 25
CN(c1nc2cc(F)ccc2o1)[C@H]1CCc2c(c3cc(F)ccc3n2CC(=O)O)C1 [Example 29, (3S)-2-(6-fluoro-3-((5-fluorobenzo[d]oxazol-2-yl)(methyl)amino)-3,4-dihydro-1H-carbazol-9(2H)-yl)acetic acid] | 7 | – | 4.1 | 4
CN(c1nc2ccc(Cl)cc2s1)[C@H]1CCc2c(c3cc(F)ccc3n2CC(=O)O)C1 [Example 32, (3S)-2-(3-((6-chlorobenzo[d]thiazol-2-yl)(methyl)amino)-6-fluoro-3,4-dihydro-1H-carbazol-9(2H)-yl)acetic acid] | 20 | – | 6.7 | 33
Cc1cc(N(C)C2CCc3c(c4cc(F)ccc4n3CC(=O)O)C2)no1 (centres unmarked) [Example 52, 2-(6-fluoro-3-(methyl(5-methylisoxazol-3-yl)amino)-3,4-dihydro-1H-carbazol-9(2H)-yl)acetic acid] | 58 | – | 7.4 | –
CN(c1ncc(Cl)cn1)C1CCc2c(c3ccccc3n2CC(=O)O)C1 (centres unmarked) [Example 53, 2-(3-((5-chloropyrimidin-2-yl)(methyl)amino)-3,4-dihydro-1H-carbazol-9(2H)-yl)acetic acid] | 16 | – | 5.1 | –
CN(c1ncc(Cl)cn1)C1CCc2c(c3cc(Cl)ccc3n2CC(=O)O)C1 (centres unmarked) [Example 54, 2-(6-chloro-3-((5-chloropyrimidin-2-yl)(methyl)amino)-3,4-dihydro-1H-carbazol-9(2H)-yl)acetic acid] | 3 | – | 2 | –
Cc1ccc2c(c1)c1c(n2CC(=O)O)CCC(N(C)c2ncc(Cl)cn2)C1 (centres unmarked) [Example 55, 2-(3-((5-chloropyrimidin-2-yl)(methyl)amino)-6-methyl-3,4-dihydro-1H-carbazol-9(2H)-yl)acetic acid] | 40 | – | 5.5 | –
CN(c1ncc(Cl)cn1)C1CCc2c(c3cc(OC(F)(F)F)ccc3n2CC(=O)O)C1 (centres unmarked) [Example 56, 2-(3-((5-chloropyrimidin-2-yl)(methyl)amino)-6-(trifluoromethoxy)-3,4-dihydro-1H-carbazol-9(2H)-yl)acetic acid] | 303 | – | 8.8 | –
COc1ccc2c(c1)c1c(n2CC(=O)O)CCC(N(C)c2ncc(Cl)cn2)C1 (centres unmarked) [Example 57, 2-(3-((5-chloropyrimidin-2-yl)(methyl)amino)-6-methoxy-3,4-dihydro-1H-carbazol-9(2H)-yl)acetic acid] | 56 | – | 4.6 | –
CN(c1ncc(Cl)cn1)C1CCc2c(c3cc(C(F)(F)F)ccc3n2CC(=O)O)C1 (centres unmarked) [Example 58, 2-(3-((5-chloropyrimidin-2-yl)(methyl)amino)-6-(trifluoromethyl)-3,4-dihydro-1H-carbazol-9(2H)-yl)acetic acid] | 15 | – | 3.5 | –
